Key:
Format in all cases: functional
[1] = system: Candida albicans; experiment: Antimicrobial activity against Candida albicans ATCC 66029 at 100 ug/well after 24 hrs at 30 degC by agar diffusion assay; conditions: ATCC 66029, 24 h, read-out: DIZ
[2] = system: Staphylococcus aureus; experiment: Antimicrobial activity against Staphylococcus aureus ATCC 6538 at 100 ug/well after 24 hrs at 37 degC by agar diffusion assay; conditions: ATCC 6538, 24 h, read-out: DIZ
[3] = system: Escherichia coli; experiment: Antimicrobial activity against Escherichia coli ATCC 8739 at 100 ug/well after 24 hrs at 37 degC by agar diffusion assay; conditions: ATCC 8739, 24 h, read-out: DIZ

SMILES	zone of inhibition at 100 µg/disc [1] [mm]	zone of inhibition at 100 µg/disc [2] [mm]	zone of inhibition at 100 µg/disc [3] [mm]
CCC(C)n1ncn(-c2ccc(N3CCN(c4ccc(OCC5COC(Cn6cncn6)(c6ccc(Cl)cc6Cl)O5)cc4)CC3)cc2)c1=O (centres undefined) [ITRACONAZOLE]	21	–	–
CN1C(=O)N=C(Nc2nc(Cc3ccc4c(c3)OCO4)cn2C)C1=O [CLATHRIDINE]	18	0	0
NC[C@H]1O[C@H](O[C@H]2[C@H](O)[C@@H](O[C@H]3O[C@H](CO)[C@@H](O)[C@H](N)[C@H]3O)[C@H](N)C[C@@H]2N)[C@H](O)[C@@H](O)[C@@H]1O [KANAMYCIN]	–	37	38
CN1C(=N)N=C(Nc2nc(Cc3ccc4c(c3)OCO4)cn2C)C1=O [CLATHRIDIMINE]	24	0	15

— ChEMBL document CHEMBL1177750, “Cellular localization of clathridimine, an antimicrobial 2-aminoimidazole alkaloid produced by the Mediterranean calcareous sponge Clathrina clathrus” (2010)
